Data reported in US8168596B2, “Use of cycloartane compounds for treating arthritis” (NuLiv Holding Inc., priority 2008, dated 2012).

Key:
MMP-2 = assay: Zymography of MMP-2 from pre-treated SW1353 cells; assay type: cell-based, human; settings: PMA-pre-treated SW1353; 0.1 μM, 24 h
Experimental: At the beginning of the experiment, the cells were pre-treated with 100 ng/mL PMA or 10 ng/mL IL-1β for 24 hours. The cells were then treated with 0.1 μM Dexamethasone, various astragaloside compounds (0.1 μM) or extracts of Astragalus membranaceous (1 μg/mL) at indicated dosages for another 24 hours. For control sample, 0.1% DMSO was used as a negative control for these experiments. The conditioned culture mediums were then centrifuged, 2-fold concentrated and collected for assay of collagens or MMPs secreted into the culture medium.
The proteolytic activities of MMPs from SW1353 cells were measured essentially as described previously (Circ Res, 1999; 85:906-911). The cells were lysed in lysis buffer (1% Triton X-100, 50 mM Tris-Cl, pH 7.4, 180 mM NaCl, 1 mM EDTA). The samples were measured for their protein concentration using the bicinchoninic acid (BCA) protein assay kit as described. Samples of concentrated conditioned medium and cell lysates were mixed with non-reducing electrophoresis loading buffer and subjected to electrophoresis under non-reducing conditions. The electrophoresis was carried out on a 10% SDS-PAGE co-polymerized with 2 mg/mL gelatin or casein (Sigma, St. Louis, Mo. USA). For zymographic analysis of pro-MMP-2 and activated MMP-2, the total 20 μg of culture medium were used for electrophoresis. Following electrophoresis, renaturation of the proteins was achieved by incubating the gels twice in 25 g/L Triton X-100 at room temperature for 10 min. Subsequently the gels were incubated in 50 mM Tris-HCl, pH 7.5 containing 0.2 M NaCl, 0.02% Brij35 and 10 mM CaCl2 at 37° C. for 18 hours. After the gels were stained with Coomassie Brilliant Blue R-250 and destained, zones of proteolytic activities became visible as transparent bands in the stained gel. In order to obtain higher sensitivity, the gels were further destained in a solution of 1% Triton X-100 (1 to 2 hours). This procedure increased the signal-to-noise ratio, allowing the visualization of faint gelatinase bands at 92 kDa, 125 kDa and greater than 200 kDa. Zymograms were read using a Molecular Dynamics (Sunnyvale, Calif., USA) computing laser densitometer with Image Quant software.

TIMP1 mRNA = assay: RT-PCR of TIMP1 mRNA expression in SW1353 cells; assay type: cell-based, human; settings: for TIMP1 mRNA expression after AS4 treatment followed by PMA: then 100 ng/mL PMA 24 h; for TIMP mRNA expression after only AS4 treatment: 24 h, no PMA
Experimental: First of all, the interaction between TIMP1 mRNA expression and MMP1 mRNA expression in human SW1353 cell line after only AS4 treatment was studied. […] The SW1353 cells were then collected for RT-PCR analysis.
In a second testing, the effect of AS4 treatment followed by PMA treatment was also studied. The SW1353 cells were first treated with astragaloside IV (AS4) at a concentration of 0.01 μM, 0.1 μM, or 1 μM, followed by incubation for 24 hours. Then PMA was added into each well, followed by incubation for 24 hours. These SW1353 cells were also collected for RT-PCR analysis in the end of the second testing.
Total RNAs were isolated from the cultured human cells using NucleoSpin RNAII Kit (Macherey-Nagel Inc., PA, USA). Five μg of RNA was reverse transcribed in a total 20 μl transcription mixture. The reaction tube containing primers (oligo(dT)), RNA, 10 mM dNTP Mix, and DEPC-treated water was first incubated at 65° C. for 5 minutes. Eight μl master reaction mixture containing 4 μl 5× cDNA synthesis Buffer, 1 μl 0.1 M DTT, 1 μl RNase OUT™ (40U/μl), 1 μl DEPC-Treated water, and 1 μl SuperScript™II was then added into the reaction tube. The reaction tube was then incubated at 50° C. for 60 minutes, followed by incubation at 85° C. for 5 minutes. Finally, 1 μl RNase H was added at 37° C. and the reaction tube was incubated for 20 minutes. The resulting cDNA was further amplified by PCR. The relevant primers for the following PCR reaction were listed below.
(ii) the TIMP1 forward primer is 5′-AATTCCGACCTCGTCATCAG-3′ (SEQ ID NO: 3) and the TIMP1 reverse primer is 5′-TGCAGTTTTCCAGCAATGAG-3′ (SEQ ID NO: 4); and
In addition, the PCR reaction of MMP1 cDNA was preformed as follows: 95° C. for 5 min, followed by 35 cycles of 94° C. for 30 sec, 60° C. for 30 sec, and 72° C. for 30 sec, and then 72° C. for 10 min followed by maintaining at 4° C. Similarly, the PCR reaction of TIMP1 cDNA was performed as follows: 94° C. for 5 min, followed by 35 cycles of 94° C. for 30 sec, 60° C. for 30 sec, and 72° C. for 30 sec, and then 72° C. for 10 min followed by maintaining at 4° C. The PCR reaction of GAPDH cDNA was performed as follows: 94° C. for 5 min, followed by 18 cycles of 94° C. for 30 sec, 54° C. for 30 sec, and 72° C. for 30 sec, and then 72° C. for 30 sec followed by maintaining at 4° C. These PCR products were analyzed by electrophoresis on a 1.5% gel.

Type II Collagen = assay: Western blot of Type II Collagen in pre-treated human chondrocytes (HCHs); assay type: cell-based; settings: IL-1β-pre-treated HCH culture medium; compounds 0.1 μM, 48 h

With `CC(C)(O)[C@@H]1CC[C@](C)([C@H]2[C@@H](O)C[C@@]3(C)[C@@H]4C[C@H](O[C@@H]5O[C@H](CO)[C@@H](O)[C@H](O)[C@H]5O)[C@H]5C(C)(C)[C@@H](O[C@@H]6OC[C@@H](O)[C@H](O)[C@H]6O)CC[C@@]56C[C@@]46CC[C@]23C)O1` [AS4, Astragaloside IV] the “MMP-2, Zymography, relative to Ctrl 1.00” value (MMP-2) was 1.01, the “TIMP1 mRNA expression after AS4 treatment followed by PMA” value (“TIMP1 mRNA expression” for short) (TIMP1 mRNA; AS4 0.01 μM 24 h) was 1.36 and the “TIMP mRNA expression after only AS4 treatment” value (from here on “TIMP mRNA expression”) (TIMP1 mRNA; AS4 0.01 μM) was 0.87. For the same compound, the “TIMP1 mRNA expression” value (TIMP1 mRNA; AS4 0.1 μM 24 h) was 1.34, the “TIMP mRNA expression” value (TIMP1 mRNA; AS4 0.1 μM) was 0.90 and the “TIMP1 mRNA expression” value (TIMP1 mRNA; AS4 1 μM 24 h) was 1.31. The “TIMP mRNA expression” value (TIMP1 mRNA; AS4 1 μM) was 0.84 and the “Type II Collagen, Western blot, relative to Ctrl 1.00” value (Type II Collagen) was 1.16.
